# Source: patent US20260285846A1, “REV-ERB AGONISTS FOR TH17-MEDIATED INFLAMMATORY DISORDERS” (UNIVERSITY OF FLORID RESEARCH FOUNDATION, iNCORPORATED, priority 2021, published 2026)
# Target: REV-ERBα LBD (Homo sapiens, UniProt P20393, DEL324-422)
# Experiment: biochemical
# Conditions: FRET assay; 6xHistag-REV-ERBα LBD with FITC-labeled SMRT corepressor peptide; read-out: REVERBα (Agonism of REV-ERBα, EC50)
# Procedure: TR-FRET corepressor interaction assay. The time-resolved fluorescence resonance energy transfer (TR-FRET) assay was performed in black low-volume 384-well plates (Greiner). Each well contained 4 nM 6×Histag-REV-ERBα LBD (human; residues 281-614 A324-422) or 6×Histag-REV-ERBα LBD (human; residues 381-579) protein expressed in and purified from Escherichia coli using nickel affinity and size exclusion chromatography; 1 nM LanthaScreen Elite Tb-anti-HIS Antibody (Thermo Fisher Scientific); and 400 nM FITC-labeled peptide derived from the SMRT corepressor ([…]) containing a N-terminal FITC label with a six-carbon linker (Ahx) and an amidated C-terminus for stability (synthesized by LifeTein) in TR-FRET buffer (20 mM potassium phosphate, pH 7.4, 50 mM potassium chloride, 1 mM dithiothreitol, and 0.005% Tween-20). Ligand stocks were prepared via serial dilution in DMSO, added to wells in triplicate, and plates were incubated at 4° C. for 2 h and read using a BioTek Synergy Neo multimode plate reader. The Tb donor was excited at 340 nm; its fluorescence emission was monitored at 495 nm, and the acceptor FITC emission was measured at 520 nm; and the TR-FRET ratio was calculated as the signal at 520 nm divided by the signal at 495 nm. Data were plotted using GraphPad Prism as TR-FRET ratio vs. ligand concentration and fit to sigmoidal dose response curve equation.
# Exemplary compounds of the present disclosure were assayed as described above to assess agonism of REV-ERBα. Results of the FRET assay are shown in Table 2 below (A: EC50<100 nM; B: EC50 100 nM-1000 nM; C: EC50>1000 nM; NT: not tested).
# Chain of REV-ERBα LBD (P20393 with tags, fused parts or gaps DEL324-422): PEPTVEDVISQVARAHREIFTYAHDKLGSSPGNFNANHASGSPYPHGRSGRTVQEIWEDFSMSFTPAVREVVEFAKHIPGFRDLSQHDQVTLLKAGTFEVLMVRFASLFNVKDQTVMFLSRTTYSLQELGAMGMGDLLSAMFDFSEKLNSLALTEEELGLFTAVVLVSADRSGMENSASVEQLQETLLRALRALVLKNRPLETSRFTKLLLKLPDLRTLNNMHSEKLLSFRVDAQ
# Chain of REV-ERBα LBD (Q9Y618 2335-2356 partner limits assumed): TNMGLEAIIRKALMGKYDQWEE
row,EC50 [nM],SMILES
1,< 100,"[2H]C1([2H])CC(S(=O)(=O)N[C@@H](c2cn(CC(C)(C)C)c3cc(-c4cccnc4C(F)(F)F)c(F)cc23)C(F)F)C1 [Compound 45, (S)—N-(2,2-difluoro-1-(5-fluoro-1-neopentyl-6-(2-(trifluoromethyl)pyridin-3-yl)-1H-indol-3-yl)ethyl)cyclobutane-1-sulfonamide-3,3-d2]"
2,< 100,"Cc1ccnc(C(F)(F)F)c1-c1cc2c(cc1F)c([C@H](NS(=O)(=O)C1CC1)C(F)F)cn2CC(C)(C)C [Compound 129, N-((1S)-2,2-difluoro-1-(5-fluoro-6-(4-methyl-2-(trifluoromethyl)pyridin-3-yl)-1-neopentyl-1H-indol-3-yl)ethyl)cyclopropanesulfonamide]"
3,< 100,"CC(C)(C)Cn1cc([C@H](NS(=O)(=O)C2CC2)C(F)F)c2cc(F)c(-c3cc(F)cnc3C(F)(F)F)cc21 [Compound 132, (S)—N-(2,2-difluoro-1-(5-fluoro-6-(5-fluoro-2-(trifluoromethyl)pyridin-3-yl)-1-neopentyl-1H-indol-3-yl)ethyl)cyclopropanesulfonamide]"
4,< 100,"CC(C)(C)Cn1cc([C@H](NS(=O)(=O)C2CC2)C(F)F)c2cc(F)c(-c3cccnc3C(F)(F)F)nc21 [Compound 145, (S)—N-(2,2-difluoro-1-(5-fluoro-1-neopentyl-6-(2-(trifluoromethyl)pyridin-3-yl)-1H-pyrrolo[2,3-b]pyridin-3-yl)ethyl)cyclopropanesulfonamide]"
5,< 100,"N#CC1CC(n2cc([C@H](NS(=O)(=O)C3CC3)C(F)F)c3cc(F)c(-c4ccc(F)cc4C(F)(F)F)cc32)C1 (stereo partly drawn) [Compound 179, (S)—N-(1-(1-(3-cyanocyclobutyl)-5-fluoro-6-(4-fluoro-2-(trifluoromethyl)phenyl)-1H-indol-3-yl)-2,2-difluoroethyl)cyclopropanesulfonamide]"
6,< 100,"O=S(=O)(N[C@@H](c1cn(C2CCC2)c2cc(-c3cc(F)cnc3C(F)(F)F)c(F)cc12)C(F)F)C1CC1 [Compound 149, (S)—N-(1-(1-cyclobutyl-5-fluoro-6-(5-fluoro-2-(trifluoromethyl)pyridin-3-yl)-1H-indol-3-yl)-2,2-difluoroethyl)cyclopropanesulfonamide]"
7,100 to 1000,"CC(C)(C)Cn1cc([C@H](NS(=O)(=O)C2CC2)C(F)(F)F)c2cc(F)c(-c3ncccc3C(F)(F)F)cc21 [Compound 9, (S)—N-(2,2,2-trifluoro-1-(5-fluoro-1-neopentyl-6-(3-(trifluoromethyl)pyridin-2-yl)-1H-indol-3-yl)ethyl)cyclopropanesulfonamide]"
8,< 100,"CC(C)(C)Cn1cc([C@H](NS(=O)(=O)C2CCC2)C(F)F)c2cc(F)c(-c3cc(F)cnc3C(F)(F)F)cc21 [Compound 137, (S)—N-(2,2-difluoro-1-(5-fluoro-6-(5-fluoro-2-(trifluoromethyl)pyridin-3-yl)-1-neopentyl-1H-indol-3-yl)ethyl)cyclobutanesulfonamide]"
9,< 100,"CC(C)(C)Cn1cc([C@H](NS(=O)(=O)C2CC2)C(F)F)c2ccc(-c3ncccc3C3CC3)cc21 [Compound 101, (S)—N-(1-(6-(3-cyclopropylpyridin-2-yl)-1-neopentyl-1H-indol-3-yl)-2,2-difluoroethyl)cyclopropanesulfonamide]"
10,< 100,"CC(NS(=O)(=O)C1CC1)c1cn(CC(C)(C)C)c2cc(-c3c(F)cccc3C#N)ccc12 (single isomer, unassigned) [Compound 27, (S or R) N-[(1R)-1-[6-(2-cyano-6-fluoro-phenyl)-1-(2,2-dimethylpropyl)indol-3-yl]ethyl]cyclo]"
11,< 100,"CC(C)(C)Cn1cc([C@H](NS(=O)(=O)C2CC2)C(F)F)c2cc(F)c(-c3c(C#N)cccc3C(F)F)cc21 [Compound 109, N-((1S)-1-(6-(2-cyano-6-(difluoromethyl)phenyl)-5-fluoro-1-neopentyl-1H-indol-3-yl)-2,2-difluoroethyl)cyclopropanesulfonamide]"
